Data: DBAASP
Values after ≈ are worked out from the molar mass of the structure shown. Values joined by “and” are separate entries in the source; they are usually repeats but may differ in a detail not shown here. Equal values may be shown once.

What was measured:
Assay in all cases: ≥ marks a high value that may be exact or a test limit, other limits are often not marked, values filed in µg/mL are converted to µM
[1] = system: Candida albicans ATCC 10261
Candida albicans SC5314 = system: Candida albicans SC5314
Klebsiella pneumoniae = system: Klebsiella pneumoniae
[2] = system: Pseudomonas aeruginosa ATCC 27853
Serratia marcescens = system: Serratia marcescens
[3] = system: Yersinia enterocolitica O:9 96-C
[4] = system: Bacillus licheniformis X39
[5] = system: Candida albicans ATCC 2002
[6] = system: Psychrobacter faecalis X29
[7] = system: Rhodococcus rhodochrous X15
Serratia rubidaea X01 = system: Serratia rubidaea X01
[8] = system: Staphylococcus aureus ATCC 2592
[9] = system: Staphylococcus carnosus KHS
Escherichia coli O157:H7 = system: Escherichia coli O157:H7
[10] = system: Staphylococcus aureus 1056
[11] = system: Acinetobacter baumannii ATCC 19606
[12] = system: Bordetella bronchiseptica CUN 11844-99
[13] = system: Brucella abortus 9.49 (per-)
[14] = system: Escherichia coli ATCC 23716
[15] = system: Escherichia coli ATCC 25922
[16] = system: Pseudomonas aeruginosa CUN 4158-02
[17] = system: Staphylococcus aureus ATCC 43300
[18] = system: Staphylococcus aureus SA113
[19] = system: Staphylococcus aureus ΔmprFpRBsyn
[20] = system: Staphylococcus aureus ΔmprF
Staphylococcus aureus = system: Staphylococcus aureus
Yersinia pestis KIM pYV = system: Yersinia pestis KIM pYV
[21] = system: Ureaplasma urealyticum strain 1
[22] = system: Ureaplasma urealyticum strain 2
[23] = system: Enterococcus faecalis CDC 21
[24] = system: Enterococcus faecium 94-132
Enterococcus faecium = system: Enterococcus faecium
Escherichia coli BAS 849 = system: Escherichia coli BAS 849
Escherichia coli ML-35p = system: Escherichia coli ML-35p
Escherichia coli mcr106 = system: Escherichia coli mcr106
[25] = system: Listeria monocytogenes EGD
[26] = system: Pseudomonas aeruginosa MR2123
[27] = system: Pseudomonas aeruginosa MR3007
[28] = system: Pseudomonas aeruginosa SBI-N
[29] = system: Salmonella enterica serovar typhimurium MS7953s
[30] = system: Salmonella enterica subsp. enterica serovar Typhimurium ATCC 14028s
[31] = system: Staphylococcus aureus 28841
[32] = system: Staphylococcus aureus 30371
[33] = system: Staphylococcus aureus 930918-3

Q: How did the MIC [1] turn out when `CC[C@H](C)[C@H](NC(=O)[C@H](C)NC(=O)[C@@H](NC(=O)[C@H](Cc1cnc[nH]1)NC(=O)[C@@H]1CCCN1C(=O)[C@H](CC(C)C)NC(=O)[C@@H](NC(=O)[C@H](C)NC(=O)[C@H](CCCN=C(N)N)NC(=O)CNC(=O)[C@@H](NC(=O)[C@H](CCCN=C(N)N)NC(=O)[C@H](C)NC(=O)[C@@H](NC(=O)[C@@H](NC(=O)[C@H](CCCN=C(N)N)NC(=O)[C@@H](NC(=O)[C@H](C)NC(=O)[C@H](CO)NC(=O)[C@H](CCCN=C(N)N)NC(=O)[C@H](CC(C)C)NC(=O)[C@H](C)N)C(C)C)[C@@H](C)O)C(C)C)C(C)C)C(C)C)C(C)C)C(N)=O` [ALRSAVRTVARVGRAVLPHVAI] was run?
A: The MIC was 6.3 µM and 3.1 µM.

Q: What about the MIC (Candida albicans SC5314) of the same molecule?
A: Its MIC is 6.3 µM and 3.1 µM.

Q: And the MIC (Klebsiella pneumoniae)?
A: The MIC was > 25 µM and 12.5 µM.

Q: And the MIC [2]?
A: The MIC was 12.5 µM and 6.3 µM.

Q: What about the MIC (Serratia marcescens) of the same molecule?
A: The MIC was 25 µM (≈ 57.8 µg/mL).

Q: And the MIC [3]?
A: Its MIC is 3.1 µM and 1.6 µM.

Q: Which MIC [4] does the source give for `CC[C@H](C)[C@H](NC(=O)[C@H](CCC(=O)O)NC(=O)[C@H](CCCCN)NC(=O)[C@H](C)NC(=O)[C@H](C)NC(=O)[C@@H](NC(=O)[C@H](CCCCN)NC(=O)CNC(=O)[C@H](Cc1ccccc1)NC(=O)[C@H](CC(=O)O)NC(=O)[C@H](CCCCN)NC(=O)[C@H](CC(C)C)NC(=O)[C@@H](NC(=O)[C@H](CO)NC(=O)[C@H](CCSC)NC(=O)[C@H](CC(C)C)NC(=O)CN)[C@@H](C)O)[C@@H](C)O)C(=O)N[C@@H](C)C(=O)N[C@@H](CCC(N)=O)C(=O)N[C@@H](CO)C(=O)N[C@@H](CC(C)C)C(=O)N[C@@H](CC(C)C)C(=O)N[C@@H](CO)C(=O)N[C@H](C(=O)N[C@@H](C)C(=O)N[C@@H](CO)C(=O)N[C@H]1CSSC[C@@H](C(=O)O)NC(=O)[C@H]([C@@H](C)O)NC(=O)[C@H](CCCCN)NC(=O)[C@H](C)NC(=O)[C@H](CC(C)C)NC(=O)[C@H](CCCCN)NC1=O)[C@@H](C)O` [GLMSTLKDFGKTAAKEIAQSLLSTASCKLAKTC] here?
A: The MIC was 14.6 µM (≈ 50 µg/mL).

Q: What about the MIC [5] of the same molecule?
A: Its MIC is at least 58.5 µM.

Q: What about the MIC [6] of the same molecule?
A: Its MIC is 1.84 µM (≈ 6.3 µg/mL).

Q: And the MIC [7]?
A: Its MIC is 0.468 µM (≈ 1.6 µg/mL).

Q: And the MIC (Serratia rubidaea X01)?
A: The MIC was 29.3 µM (≈ 99.9 µg/mL).

Q: And the MIC [8]?
A: Its MIC is 3.66 µM (≈ 12.5 µg/mL).

Q: What about the MIC [9] of the same molecule?
A: Its MIC is 1.84 µM (≈ 6.3 µg/mL).

Q: With `CC[C@H](C)[C@H](N)C(=O)N1CCC[C@H]1C(=O)N[C@@H](CCCN=C(N)N)C(=O)N1CCC[C@H]1C(=O)N[C@@H](CC(C)C)C(=O)N[C@@H](CC(=O)O)C(=O)N1CCC[C@H]1C(=O)N[C@H]1CSSC[C@@H]2NC(=O)[C@H](CO)NC(=O)[C@H](CCCCN)NC(=O)CNC(=O)[C@H](CC(N)=O)NC(=O)[C@H](CCCN=C(N)N)NC(=O)[C@@H]3CSSC[C@H](NC(=O)[C@H](CCCN=C(N)N)NC(=O)CNC(=O)[C@H](CC(N)=O)NC(=O)[C@H](CCC(N)=O)NC(=O)[C@H](C)NC(=O)[C@H]([C@@H](C)CC)NC1=O)C(=O)N[C@@H](Cc1ccccc1)C(=O)N[C@@H]([C@@H](C)O)C(=O)NCC(=O)N[C@@H]([C@@H](C)CC)C(=O)N[C@@H](CSSC[C@@H](C(=O)N[C@@H](CCCN=C(N)N)C(=O)N[C@@H](CCCN=C(N)N)C(=O)N[C@@H](CCCN=C(N)N)C(=O)O)NC2=O)C(=O)N[C@@H](CCCN=C(N)N)C(=O)N[C@@H](Cc1ccc(O)cc1)C(=O)N1CCC[C@H]1C(=O)N[C@@H](Cc1ccc(O)cc1)C(=O)N[C@@H](Cc1ccccc1)C(=O)N[C@@H](Cc1c[nH]c2ccccc12)C(=O)N[C@@H]([C@@H](C)CC)C(=O)NCC(=O)N[C@@H]([C@@H](C)O)C(=O)N3` [IPRPLDPCIAQNGRCFTGICRYPYFWIGTCRNGKSCCRRR] as the molecule, how does the MIC (Escherichia coli O157:H7) read?
A: The MIC was 0.515 µM (≈ 2.41 µg/mL).

Q: And the MIC [10]?
A: Its MIC is 0.594 µM (≈ 2.78 µg/mL).

Q: Which results are given for `CC[C@H](C)[C@H](NC(=O)[C@H](CCCN=C(N)N)NC(=O)[C@H](CCCCN)NC(=O)[C@H](CO)NC(=O)[C@@H](NC(=O)[C@@H](N)CCCCN)[C@@H](C)CC)C(=O)N[C@@H](CC(C)C)C(=O)N[C@H](C(=O)NCC(=O)N[C@@H](CCCCN)C(=O)N[C@@H](CCCCN)C(N)=O)[C@@H](C)O` [KISKRILTGKK]?
A: MIC [11]: > 201 µM; MIC [12]: ≥ 201 µM; MIC [13]: ≥ 201 µM; MIC [14]: ≥ 201 µM; MIC [15]: > 201 µM; MIC [16]: ≥ 201 µM; MIC [17]: > 201 µM; MIC [18]: ≥ 201 µM; MIC [19]: ≥ 201 µM; MIC [20]: ≥ 201 µM; MIC (Staphylococcus aureus): > 201 µM; MIC (Yersinia pestis KIM pYV): ≥ 201 µM

Q: Which MIC [21] does the source give for `CC[C@H](C)[C@H](NC(=O)[C@H](CCSC)NC(=O)[C@H](CC(=O)O)NC(=O)[C@@H](NC(=O)[C@H](CCSC)NC(=O)[C@H](Cc1ccccc1)NC(=O)[C@H](CC(N)=O)NC(=O)[C@H](Cc1ccccc1)NC(=O)CNC(=O)[C@H](CCCCN)NC(=O)[C@H](CC(N)=O)NC(=O)[C@H](CO)NC(=O)[C@@H](N)CCCN=C(N)N)C(C)C)C(=O)N[C@@H](CCC(N)=O)C(=O)N[C@@H](C)C(=O)N[C@@H](CC(C)C)C(=O)N[C@@H](CO)C(=O)N[C@@H](CCCCN)C(N)=O` [RSNKGFNFMVDMIQALSK] here?
A: Its MIC is at least 46 µM.

Q: And the MIC [22]?
A: Its MIC is at least 46 µM.

Q: Which results are given for `CC[C@H](C)[C@H](NC(=O)[C@H](CCCCN)NC(=O)CNC(=O)[C@H](CC(C)C)NC(=O)[C@H](Cc1ccccc1)NC(=O)[C@H](CCC(N)=O)NC(=O)[C@H](Cc1ccccc1)NC(=O)[C@@H](N)C(C)C)C(=O)N[C@H](C(=O)N[C@@H](CCCCN)C(=O)N[C@@H](CCCCN)C(=O)N[C@H](C(=O)NCC(=O)N[C@@H](CC(N)=O)C(=O)N[C@@H](Cc1ccccc1)C(=O)N[C@H](C(=O)N[C@@H](CCCCN)C(=O)NCC(=O)N[C@@H](Cc1ccccc1)C(=O)N[C@@H](CO)C(=O)N[C@@H](CCCCN)C(=O)N[C@H](C(=O)N[C@@H](Cc1ccccc1)C(=O)O)C(C)C)C(C)C)C(C)C)[C@@H](C)CC` [VFQFLGKIIKKVGNFVKGFSKVF]?
A: MIC [23]: 0.988 µM (≈ 2.6 µg/mL); MIC [24]: 0.114 µM (≈ 0.3 µg/mL); MIC (Enterococcus faecium): 0.19 µM (≈ 0.5 µg/mL); MIC (Escherichia coli BAS 849): 0.266 µM (≈ 0.7 µg/mL); MIC (Escherichia coli ML-35p): 0.494 µM (≈ 1.3 µg/mL); MIC (Escherichia coli mcr106): 0.266 µM (≈ 0.7 µg/mL); MIC (Klebsiella pneumoniae): 1.06 µM (≈ 2.8 µg/mL); MIC [25]: 0.152 µM (≈ 0.4 µg/mL); MIC [26]: 0.266 µM (≈ 0.7 µg/mL); MIC [27]: 0.342 µM (≈ 0.9 µg/mL); MIC [28]: 0.342 µM (≈ 0.9 µg/mL); MIC [29]: 0.494 µM (≈ 1.3 µg/mL); MIC [30]: 0.57 µM (≈ 1.5 µg/mL); MIC [31]: 0.95 µM (≈ 2.5 µg/mL); MIC [32]: 2.2 µM (≈ 5.8 µg/mL); MIC [33]: 1.48 µM (≈ 3.9 µg/mL)
